Experimental data taken from the NIST ThermoML archive (doi:10.1021/je400207t).
Values joined by “and” are separate entries in the source; they are usually repeats but may differ in a detail not shown here. Identical values can stand only once. Numbers after ± are expanded uncertainties.

What was measured:
[1] = for vapor or sublimation pressure: Calculated from knudsen effusion weight loss
[2] = Molar enthalpy of transition or fusion; conditions: DSC

In the case of O[C@@H]1[C@@H](O)[C@@H]2OC[C@@H](O2)[C@H]1O [1,6-anhydro-β-D-glucopyranose], the “vapor or sublimation pressure” value ([1]; 361.13 K, Crystal 2) is reported as 5.35e-05 ± 1e-05 kPa and 6.29e-05 ± 1e-05 kPa and 5.88e-05 ± 1e-05 kPa, the “vapor or sublimation pressure” value ([1]; 363.14 K, Crystal 2) is reported as 7.32e-05 ± 1e-05 kPa and 7.78e-05 ± 1e-05 kPa and the “vapor or sublimation pressure” value ([1]; 365.22 K, Crystal 2) is reported as 0.000102 ± 1.1e-05 kPa and 0.000101 ± 1.1e-05 kPa and 9.67e-05 ± 1.1e-05 kPa. The “vapor or sublimation pressure” value ([1]; 367.16 K, Crystal 2) was 0.00012 ± 1.1e-05 kPa and 0.000119 ± 1.1e-05 kPa and 0.000113 ± 1.1e-05 kPa, the “vapor or sublimation pressure” value ([1]; 369.14 K, Crystal 2) was 0.000164 ± 1.2e-05 kPa and 0.000144 ± 1.1e-05 kPa and 0.000152 ± 1.1e-05 kPa and the “vapor or sublimation pressure” value ([1]; 371.15 K, Crystal 2) was 0.000183 ± 1.2e-05 kPa and 0.000192 ± 1.2e-05 kPa. For the same molecule, the “vapor or sublimation pressure” value ([1]; 373.15 K, Crystal 2) was 0.000247 ± 1.3e-05 kPa and 0.000231 ± 1.3e-05 kPa, the “vapor or sublimation pressure” value ([1]; 375.13 K, Crystal 2) was 0.000317 ± 1.5e-05 kPa and 0.00028 ± 1.4e-05 kPa and 0.000289 ± 1.4e-05 kPa and the “vapor or sublimation pressure” value ([1]; 377.22 K, Crystal 2) was 0.000407 ± 1.8e-05 kPa and 0.000368 ± 1.6e-05 kPa and 0.000396 ± 1.7e-05 kPa. For the same molecule, the “vapor or sublimation pressure” value ([1]; 379.15 K, Crystal 2) was 0.000476 ± 2e-05 kPa and 0.000472 ± 1.9e-05 kPa and 0.000458 ± 1.9e-05 kPa, the Normal melting temperature ([1]; Crystal 1, DTA) was 182.2 ± 0.4 °C and the Triple point temperature ([1]; Crystal 2, DTA) was 384.9 ± 0.7 K. The “Molar enthalpy of transition or fusion” value ([2]; Crystal 1) was 0.789 ± 0.0956 kcal/mol and the “Molar enthalpy of transition or fusion” value ([2]; Crystal 2) was 5.54 ± 0.215 kcal/mol.
